Assay results from US12110286B2, “Benzimidazolone derived inhibitors of BCL6” (Cancer Research Technology Limited, priority 2017, dated 2024).

Target: Trx-6×His-BCL6 (human BCL6 BTB domain covering amino-acid sequence 5-129) (Homo sapiens (Human), UniProt P41182)
Experiment: HTRF in vitro assay (BCL6 / BCOR-AF633 peptide)
Format: binding
Conditions: for activity in the HTRF assay: result in words
Method: The % inhibition at each concentration was calculated by normalising FRET ratio to the appropriate high (DMSO with all reagents) and low (DMSO without BCL6) controls.

[1] = further generated data, 1 nM Trx-6×His-BCL6, 300 nM BCOR-AF633 peptide, 0.5 nM anti-6×His-Terbium cryptate
[2] = initially generated data, 10 nM Trx-6×His-BCL6, 300 nM BCOR-AF633 peptide, 1 nM anti-6×His-Terbium cryptate

Row | SMILES | activity in the HTRF assay | HTRF pIC50 [1] | HTRF pIC50 [2]
1 | Cn1c(=O)n(CCC(C)(O)CCO)c2cc(Nc3nc(Cl)ncc3Cl)ccc21 (stereo not drawn) [5-((2,5-dichloropyrimidin-4-yl)amino)-3-(3,5-dihydroxy-3-methylpentyl)-1-methyl-1,3-dihydro-2H-benzo[d]imidazol-2-one] | did not exhibit the desired activity | – | –
2 | Cc1cc(Nc2ccc3c(c2)n(CC[C@@H](C)O)c(=O)n3C)c(C#N)c(Cl)n1 [Example 1l, 2-chloro-4-[[3-[(3R)-3-hydroxybutyl]-1-methyl-2-oxo-benzimidazol-5-yl]amino]-6-methyl-pyridine-3-carbonitrile] | – | 5.53 | 5.62
3 | CCOC(=O)/C=C/Cn1c(=O)n(CCC(C)(C)O)c2cc(Nc3nc(N4C[C@@H](C)C(F)(F)[C@@H](C)C4)ncc3Cl)ccc21 [Example 38a, ethyl(E)-4-(5-((5-chloro-2-((3S,5R)-4,4-difluoro-3,5-dimethylpiperidin-1-yl)pyrimidin-4-yl)amino)-3-(3-hydroxy-3-methylbutyl)-2-oxo-2,3-dihydro-1H-benzo[d]imidazol-1-yl)but-2-enoate] | – | 5.53 | –
4 | Cn1c(=O)n(C)c2cc(Nc3ccnc(C(F)(F)F)c3C#N)ccc21 [4-((1,3-dimethyl-2-oxo-2,3-dihydro-1H-benzo[d]imidazol-5-yl)amino)-2-(trifluoromethyl)nicotinonitrile] | did not exhibit the desired activity | – | –
5 | C[C@@H](O)CCn1c(=O)n(C)c2ccc(Nc3cc(C(=O)O)nc(Cl)c3C#N)cc21 [Example 1e, 6-chloro-5-cyano-4-[[3-[(3R)-3-hydroxybutyl]-1-methyl-2-oxo-benzimidazol-5-yl]amino]pyridine-2-carboxylic acid] | – | – | 6.01
6 | Cc1nc(C)c(-c2ncc(Cl)c(Nc3ccc4c(c3)n(CCC(C)(C)O)c(=O)n4C)n2)s1 [Example 23c] | – | 5.99 | –
7 | Cn1c(=O)n(CCC(C)(C)O)c2cc(Nc3cc(Br)ncc3Cl)ccc21 [Example 22b, 5-((2-bromo-5-chloropyridin-4-yl)amino)-3-(3-hydroxy-3-methylbutyl)-1-methyl-1,3-dihydro-2H-benzo[d]imidazol-2-one] | – | 5.65 | –
8 | CCOC(=O)c1cc(Nc2ccc3c(c2)n(CC(O)CC)c(=O)n3C)n2ncc(F)c2n1 (stereo not drawn) [Example 1r, Ethyl 3-fluoro-7-((3-(2-hydroxybutyl)-1-methyl-2-oxo-2,3-dihydro-1H-benzo[d]imidazol-5-yl)amino)pyrazolo[1,5-a]pyrimidine-5-carboxylate] | – | 5.91 | 5.39
9 | Cn1c(=O)n(CCC(C)(C)O)c2cc(Nc3nc(N4C[C@H]5CCCC[C@H]5C4)ncc3Cl)ccc21 [Example 35o, 5-((5-chloro-2-((3aR,7aS)-octahydro-2H-isoindo1-2-yl)pyrimidin-4-yl)amino)-3-(3-hydroxy-3-methylbutyl)-1-methyl-1,3-dihydro-2H-benzo[d]imidazol-2-one] | – | 6.04 | –
10 | Cn1c(=O)n(CCC(C)(C)O)c2cc(Nc3nc(-n4cccn4)ncc3Cl)ccc21 [Example 15m] | – | 6.08 | –
11 | Cn1c(=O)n(CC(O)C(C)(C)O)c2cc(Nc3ccnc(Cl)c3C#N)ccc21 (stereo not drawn) [Example 10a, 2-Chloro-4-[[3-(2,3-dihydroxy-3-methyl-butyl)-1-methyl-2-oxo-benzimidazol-5-yl]amino]pyridine-3-carbonitrile] | – | 5.93 | 5.81
12 | Cn1c(=O)n(C[C@@H]2CCCN2CC2CC2)c2cc(Nc3ccnc(Cl)c3C#N)ccc21 [(S)-2-chloro-4-((3-((1-(cyclopropylmethyl)pyrrolidin-2-yl)methyl)-1-methyl-2-oxo-2,3-dihydro-1H-benzo[d]imidazol-5-yl)amino)nicotinonitrile] | did not exhibit the desired activity | – | –
13 | COC(=O)[C@H](N)CCn1c(=O)n(C)c2ccc(Nc3ccnc(Cl)c3C#N)cc21 [Example 12, Methyl (2R)-2-amino-4-[6-[(2-chloro-3-cyano-4-pyridyl)amino]-3-methyl-2-oxo-benzimidazol-1-yl]butanoate] | – | 5.68 | 5.79
14 | CCC1(Cn2c(=O)n(C)c3ccc(Nc4ccnc(Cl)c4C#N)cc32)CN(C)C(=O)O1 (stereo not drawn) [Example 22e] | – | 5.88 | –
15 | Cn1c(=O)n(CCN2CCOCC2)c2cc(Nc3ccnc(Cl)c3C#N)ccc21 [2-chloro-4-((1-methyl-3-(2-morpholinoethyl)-2-oxo-2,3-dihydro-1H-benzo[d]imidazol-5-yl)amino)nicotinonitrile] | did not exhibit the desired activity | – | –
16 | CC(C)Nc1ncc(Cl)c(Nc2ccc3c(c2)n(CCC(C)(C)O)c(=O)n3C)n1 [Example 20f] | – | 5.99 | –
17 | CCOC(=O)c1cc(Nc2ccc3c(c2)n(CC[C@@H](C)O)c(=O)n3C)c(C#N)c(Cl)n1 [Example 2d, Ethyl 6-chloro-5-cyano-4-[[3-[(3R)-3-hydroxybutyl]-1-methyl-2-oxo-benzimidazol-5-yl]amino]pyridine-2-carboxylate] | – | 5.87 | 6.17

Row | SMILES | activity in the HTRF assay | HTRF pIC50 [1] | HTRF pIC50 [2]
18 | Cn1c(=O)n(CCC(C)(C)O)c2cc(Nc3nc(N4CCCC(CO)C4)ncc3Cl)ccc21 (stereo not drawn) [Example 42g, 5-((5-chloro-2-(3-(hydroxymethyl)piperidin-1-yl)pyrimidin-4-yl)amino)-3-(3-hydroxy-3-methylbutyl)-1-methyl-1,3-dihydro-2H-benzo[d]imidazol-2-one] | – | 6.92 | –
19 | Cn1c(=O)n(CC2CCN2C(=O)OC(C)(C)C)c2cc(Nc3ccnc(Cl)c3C#N)ccc21 (stereo not drawn) [Example 19d] | – | 5.44 | –
20 | Cn1ccnc1-c1ncc(Cl)c(Nc2ccc3c(c2)n(CCC(C)(C)O)c(=O)n3C)n1 [Example 24a, 5-((5-chloro-2-(1-methyl-1H-imidazol-2-yl)pyrimidin-4-yl)amino)-3-(3-hydroxy-3-methylbutyl)-1-methyl-1,3-dihydro-2H-benzo[d]imidazol-2-one:formic acid (1:1)] | – | 6.33 | –
21 | Cn1c(=O)n(CCC2(C)OCCO2)c2cc(Nc3ccnc(Cl)c3C#N)ccc21 [Example 19c] | – | 5.45 | –
22 | Cn1c(=O)n(CCC(C)(C)O)c2cc(Nc3nc(N4CCOC(CO)C4)ncc3Cl)ccc21 (stereo not drawn) [Example 42j, 5-((5-chloro-2-(2-(hydroxymethyl)morpholino)pyrimidin-4-yl)amino)-3-(3-hydroxy-3-methylbutyl)-1-methyl-1,3-dihydro-2H-benzo[d]imidazol-2-one] | – | 6.81 | –
23 | Cn1c(=O)n(CCC(C)(C)O)c2cc(Nc3ccncc3Br)ccc21 [Example 29c, 5-((3-bromopyridin-4-yl)amino)-3-(3-hydroxy-3-methylbutyl)-1-methyl-1,3-dihydro-2H-benzo[d]imidazol-2-one] | – | 5.38 | –
24 | COCC(C)(O)CCn1c(=O)n(C)c2ccc(Nc3ccnc(Cl)c3C#N)cc21 (stereo not drawn) [Example 27b, 2-chloro-4-((3-(3-hydroxy-4-methoxy-3-methylbutyl)-1-methyl-2-oxo-2,3-dihydro-1H-benzo[d]imidazol-5-yl)amino)nicotinonitrile] | – | 6.14 | –
25 | COC(=O)C1CCCC1Cn1c(=O)n(C)c2ccc(Nc3ccnc(Cl)c3C#N)cc21 (stereo not drawn) [Example 11, Methyl 2-[[6-[(2-chloro-3-cyano-4-pyridyl)amino]-3-methyl-2-oxo-benzimidazol-1-yl]methyl]cyclopentanecarboxylate] | – | 5.72 | 5.71
26 | CCNC(=O)c1cc(Nc2ccc3c(c2)n(CCC(C)(C)O)c(=O)n3C)c(Cl)cn1 [Example 14, 5-Chloro-N-ethyl-4-[[3-(3-hydroxy-3-methyl-butyl)-1-methyl-2-oxo-benzimidazol-5-yl]amino]pyridine-2-carboxamide] | – | 6.29 | 6.05
27 | CN(C)CCNC(=O)c1cc(Nc2ccc3c(c2)n(C)c(=O)n3C)c(C#N)c(Cl)n1 [Example 7d, 6-Chloro-5-cyano-N-[2-(dimethylamino)ethyl]-4-[(1,3-dimethyl-2-oxo-benzimidazol-5-yl)amino]pyridine-2-carboxamide:formic acid (1:1)] | – | – | 5.50
28 | CC[C@]1(O)CCC[C@H]1Cn1c(=O)n(C)c2ccc(Nc3ccnc(Cl)c3C#N)cc21 [Example 22m] | – | 5.52 | –
29 | COC(=O)CCCn1c(=O)n(C)c2ccc(Nc3ccnc(Cl)c3C#N)cc21 [Example 10d] | – | 5.29 | 5.55
30 | C[C@@H]1C[C@H](C)CN(c2ncc(Cl)c(Nc3cc4c(cc3F)n(C)c(=O)n4CCC(C)(C)O)n2)C1.O=CO [Example 20q] | – | 5.87 | –
31 | CC(C)C(C)(O)CCn1c(=O)n(C)c2ccc(Nc3ccnc(Cl)c3C#N)cc21 (stereo not drawn) [Example 27f, 2-chloro-4-((3-(3-hydroxy-3,4-dimethylpentyl)-1-methyl-2-oxo-2,3-dihydro-1H-benzo[d]imidazol-5-yl)amino)nicotinonitrile] | – | 5.40 | –
32 | Cn1c(=O)n(C)c2cc(Nc3cc(C(F)(F)F)nc4ncnn34)ccc21 [1,3-dimethyl-5-((5-(trifluoromethyl)-[1,2,4]triazolo[1,5-a]pyrimidin-7-yl)amino)-1,3-dihydro-2H-benzo[d]imidazol-2-one] | did not exhibit the desired activity | – | –
33 | Cn1c(=O)n(CCC(C)(C)O)c2cc(Nc3nc(OCC(F)(F)F)ncc3Cl)ccc21 [Example 39a, 5-((5-Chloro-2-(2,2,2-trifluoroethoxy)pyrimidin-4-yl)amino)-3-(3-hydroxy-3-methylbutyl)-1-methyl-1,3-dihydro-2H-benzo[d]imidazol-2-one] | – | 6.09 | –
34 | C[C@@H]1CN(C(=O)c2cc(Nc3ccc4c(c3)n(CCC(C)(C)O)c(=O)n4C)c(Cl)cn2)C[C@H](C)C1(F)F [Example 36f, 5-((5-chloro-2-((3S,5R)-4,4-difluoro-3,5-dimethylpiperidine-1-carbonyl)pyridin-4-yl)amino)-3-(3-hydroxy-3-methylbutyl)-1-methyl-1,3-dihydro-2H-benzo[d]imidazol-2-one] | – | 6.07 | –
